Patent US8470789B2, “Method for inducing and accelerating cells” (DCPrime B.V., priority 2008, dated 2013)

What was measured:
CD34+ MUTZ3 cells = test: Drug-induced differentiation of isolated CD34+ MUTZ3 cells; format: cell-based, human; conditions: for share of induced CD1a+ cells also expressing Langerin: CD34+ sorted cells
Protocol: (§1) For mitoxantrone and doxorubicin cultures, 0.1-0.2 million cells/ml of MUTZ3 progenitors or CD34+, CD14+ and double negative (DN) magnetic bead sorted (MACS) MUTZ3 subsets (Miltenyi Biotec, Bergisch Gladbach, Germany) were seeded in 12-well plates in MUTZ3 routine medium or MUTZ3-DC/LC medium in the absence or presence of 1.04 nM, 2.08 nM, 5.6 nM, 16.7 nM mitoxantrone or 16.7 nM or 100 nM doxorubicin and were cultured for 72-96 hours before quantification of viable cells by trypan blue exclusion and phenotypic characterization by flowcytometry. DC and LC were matured (as above) on day 3 or 4 for 24 hours and were functionally tested in mixed leukocyte reaction or migration assays. In case of ABC transporter inhibition, 200 nM Ko-143 was added on day 0 to block BCRP activity.
(§2) Cells were immunophenotyped using the following FITC- and for PE-conjugated Mabs reactive against: CD1a (1:25), CD54 (1:25), CD80 (1:25), CD86 (1:25), CD40 (1:10) (PharMingen, San Diego, Calif.), CD14 (1:25), HLA-DR (1:25), DC-SIGN (1:10) (BD Biosciences, San Jose, Calif.), CD83 (1:10), CD34 (1:10), Langerin (1:10) (Immunotech, Marseille, France). In short, 2.5 to 5·10^4 cells were washed in PBS supplemented with 0.1% BSA and 0.02% NaN3 and incubated with specific or corresponding control Mabs for 30 minutes at 4° C. Where applicable, AnnexinV and/or PI (Propidium iodide) were added after marker staining and 10 minutes prior to analysis. Cells were washed and analyzed on a FACS-calibur flow cytometer (Becton and Dickinson, San Jose, Calif.) equipped with CellQuest analysis software and the results were expressed as mean or median fluorescence intensity or the percentage of positive cells.
To see whether the skewing effect was due to CD34^+ cell death, automatically leading to an altered CD34^+/CD14^+ ratio or whether it induced differentiation of CD34^+ cells into CD14^+ cells and LC, isolated CD34^+ and CD14^+ cells were incubated with 16.7 nM mitoxantrone or 100 nM doxorubicin for 72 hours and were analyzed for differentiation induction.

CD14+ MUTZ3 cells = test: Drug-induced differentiation of isolated CD14+ MUTZ3 cells; format: cell-based, human; conditions: 72 hours, vs PBS control
Protocol: as §1
as §2, with “In short, 2.5 to 5·10^4 cells were washed in PBS supplemented with 0.1% BSA and 0.02% NaN3 and incubated with specific or corresponding control Mabs for 30 minutes at 4° C. Where applicable, AnnexinV and/or PI (Propidium iodide) were added after marker staining and 10 minutes prior to analysis.” left out, “cells. […]” for “cells.”

[1] = system: MUTZ3 subpopulations (CD14+, CD34+, DN); test: Apoptosis and cell death (Annexin V) in MACS-separated MUTZ3 subpopulations; format: cell-based, human
Protocol: as §1, §2

MUTZ3 progenitors [2] = test: Expansion and DC marker expression of MUTZ3 progenitors cultured with drug (flow cytometry); format: cell-based, human
Protocol: as §1, §2
Similar experiments were carried out with the drug doxorubicin.

MUTZ3 progenitors [3] = test: 96 hour cytotox assay (Trypan blue exclusion); format: cell-based, human
Protocol: as §1
MUTZ3 progenitor cells were analyzed for their sensitivity to the cytostatic drug mitoxantrone. […] (An example of such trypan blue assay is: place a suitable volume of a cells suspension in appropriate tube add an equal volume of 0.4% Trypan blue and gently mix, let stand for 5 minutes at room temperature. Place 10 μl of stained cells in a hemocytometer and count the number of viable (unstained) and dead (stained) cells. Calculate the average number of unstained cells in each quadrant, and multiply by 2*10^4 to find cells/ml. The percentage of viable cells is the number of viable cells divided by the number of dead and viable cells, and the IC50 can be determined)

[4] = system: MUTZ3-DC / peripheral blood lymphocytes; test: Mixed leukocyte reaction (MLR), T cell proliferation; format: cell-based, human; conditions: day 4 mitoxantrone-generated DC
Protocol: 1·10^2-3·10^4 DC were co-cultured with 1·10^5 peripheral blood lymphocytes for 4 days in 96-wells plates in IMDM (Iscove's modified dulbecco's medium) containing 10% human pooled serum (HPS), pen/strep/glut and 2ME. At day 4, 2.5 μCi/ml [^3H]-thymidine (6.7 Ci/mmol, MP Biomedicals, Irvine, Calif.) was added per well for 16 hours. Plates were harvested onto glass fiber filtermats (Packard Instruments, Groningen, The Netherlands) using a Skatron cell harvester (Skatron Instruments, Norway), and [^3H]-thymidine incorporation was quantified using a Topcount NXT Microbetacounter (Packard, Meriden, Conn.).
(§3) If such mitoxantrone-generated DC are to be used for future vaccination strategies, they need to be functionally fully active. Therefore MUTZ3-DC cultured in the absence or presence of mitoxantrone, were analyzed in a trans-well assay for their capacity to migrate towards the chemokines CCL19 and CCL21 (FIG. 7A) and were tested in a MLR for their capacity to stimulate allogeneic T cell proliferation (FIG. 7B).

[5] = system: MUTZ3-DC and -LC cultures; test: Titration of mitoxantrone in MUTZ3-DC and -LC cultures, phenotype analysis; format: cell-based, human
Protocol: as §1, §2
In MUTZ3-DC and -LC cultures, a 2-step titration of the 16.7 nM mitoxantrone concentration was performed and DC/LC phenotypes were analyzed after 72-96 hours.

human skin DC = test: Human skin explant DC migration after intradermal injection; format: cell-based
Protocol: To establish whether mitoxantrone could be beneficial as a local adjuvant, human skin explants were intra-dermally injected with GM-CSF and IL-4 in combination with 2.08 nM, 5.6 nM or 16.7 nM mitoxantrone and 6 mm punch biopsies were floated in medium containing the same concentration of mitoxantrone. Skin DC were allowed to migrate from the biopsies for 2 days, after which they were harvested, quantified and phenotyped.

MUTZ3-DC = test: Trans-well migration towards CCL19 and CCL21; format: cell-based, human; conditions: day 4 mitoxantrone-generated DC
Protocol: as §1, §3

[6] = system: CD14+ monocytes isolated from blood; test: Response of CD14+ monocytes isolated from blood to mitoxantrone; format: cell-based, human
[7] = system: CD34+ heamatopoietic precursors isolated from human blood; test: Response of CD34+ heamatopoietic progenitors from blood to mitoxantrone; format: cell-based; conditions: 16.7 nM mitoxantrone
MUTZ3-LC cultures = test: Acceleration of MUTZ3-LC differentiation in the presence of cytokines; format: cell-based, human
Protocol: The AML-derived CD34+ MUTZ3 cell line was cultured as described before (Masterson A. J. (2002) Blood 100, 701-703.). In brief, MUTZ3 progenitors were cultured in MEM-alpha (Minimum essential medium, Gibco) containing 20% fetal calves serum (FCS), 100 IU/ml sodium-penicillin, 100 microg/ml streptomycin, 2 mM L-glutamine (pen/strep/glut), 50 microM beta-mercaptoethanol (2ME) and 10% 5637 conditioned medium (MUTZ3 routine medium) in 12-well plates (Co-star) at a concentration of 0.2 million cells/ml and were passaged twice weekly. LC were cultured in MEM-alpha containing 20% FCS, pen/strep/glut, 2ME and 10 ng/ml TGF-beta 1 (Biovision, Mountain View, Calif.), 100 ng/ml rhGM-CSF (Sagramostim, Berlex) and 2.5 ng/ml TNFalpha (Strathmann Biotec) (MUTZ3-LC medium) for 10 days in 12-well plates at a concentration of 0.1 million cells/ml, adding cytokines at day 0, 4 and 7. Interstitial DC were cultured in MEM-alpha containing 20% FCS, pen/strep/glut, 2ME and 10 ng/ml IL-4 (R&D), 100 ng/ml rhGM-CSF and 2.5 ng/ml TNFalpha (MUTZ3-DC medium) Where applicable, immature DC and LC were matured, respectively, by adding 50 ng/ml TNFalpha, 100 ng/ml IL-6 (Strathmann Biotec), […] (Strathmann Biotec) and 1 microg/ml prostaglandin E2 (PGE2) (Sigma Aldrich) for 48 hours.
as §1, §2
Next we tested whether the addition of mitoxantrone or doxorubicin at the start of MUTZ3-LC cultures could boost differentiation. […] In FIG. 4A FSC/SSC plots of day 4 LC cultured with PBS or mitoxantrone and CD1a/Langerin expression on these cultures are depicted.

[8] = 2.08 nM mitoxantrone, mature day 4 MUTZ3-DC/LC

COc1ccc2c3c([nH]c2c1)[C@H](CC(C)C)N1C(=O)[C@H](CCC(=O)OC(C)(C)C)NC(=O)[C@@H]1C3 [Ko-143]
abrogation of mitoxantrone-induced CD1a and Langerin expression by BCRP inhibitor (CD34+ MUTZ3 cells; 200 nM Ko-143 added on day 0, mitoxantrone-treated CD34+ MUTZ3 cells): could not abrogate

COc1cccc2c1C(=O)c1c(O)c3c(c(O)c1C2=O)C[C@@](O)(C(=O)CO)C[C@@H]3O[C@H]1C[C@H](N)[C@H](O)[C@H](C)O1 [doxorubicin]
percentages of CD1a+ or Langerin+ cells in CD14+ cells (CD14+ MUTZ3 cells; 100 nM doxorubicin): not affected
CD1a and Langerin expression on CD34+ MUTZ3 cells (CD34+ MUTZ3 cells; 100 nM doxorubicin, 72 hours): induced CD1a and Langerin expression
share of induced CD1a+ cells also expressing Langerin (CD34+ MUTZ3 cells; 100 nM doxorubicin, 72 hours): approximately 50%
apoptosis and cell death in the three MUTZ3 subpopulations, compared with mitoxantrone ([1]; 100 nM doxorubicin): Comparable results
LC differentiation of MUTZ3 progenitors (MUTZ3 progenitors [2]; 16.7 nM doxorubicin): no effects were observed
LC differentiation of MUTZ3 progenitors (MUTZ3 progenitors [2]; IC70 concentration of doxorubicin (~100 nM)): induced LC differentiation of MUTZ3 progenitors
IC70 concentration on MUTZ3 (MUTZ3 progenitors [3]; cytotoxic effect): ~100 nM

O=C1c2c(O)ccc(O)c2C(=O)c2c(NCCNCCO)ccc(NCCNCCO)c21 [mitoxantrone]
capacity to stimulate allogeneic T cell proliferation [4]: equipped to induce T cell proliferation
percentages of CD1a+ or Langerin+ cells in CD14+ cells (CD14+ MUTZ3 cells; 16.7 nM mitoxantrone): not affected
share of induced CD1a+ cells also expressing Langerin (CD34+ MUTZ3 cells; 16.7 nM mitoxantrone, 72 hours): approximately 50%
CD1a and Langerin expression in CD34+ subset (CD34+ MUTZ3 cells; 16.7 nM mitoxantrone, 72 hours, n=3, p=0.02 CD1a, p=0.03 Langerin): significant increase
apoptosis and cell death, CD34+ population ([1]; mitoxantrone, 72 hours): sensitive to the drug
apoptosis and cell death, CD14+ population ([1]; mitoxantrone, 72 hours, Annexin V): not affected
apoptosis and cell death, DN population ([1]; mitoxantrone, 72 hours, sensitivity relative to CD34+): to a lesser extent
cell division (expansion) (MUTZ3 progenitors [2]; 5.6 nM and 16.7 nM mitoxantrone, 72 hours): dramatically compromising cell division
differentiation of MUTZ3 progenitors (CD34+/CD14+ ratio, CD1a, Langerin, CD86, CD80) (MUTZ3 progenitors [2]; 5.6 nM and 16.7 nM mitoxantrone, 72 hours, no differentiating cytokines): drove the surviving MUTZ3 progenitors to differentiation
effect on MUTZ3-DC and -LC differentiation ([5]; 2.08 nM mitoxantrone, 72-96 hours): robust effect
HLA-DR expression vs control cultures ([5]; 2.08 nM mitoxantrone, day 4 vs day 7 control): even higher than on the control cultures
amount of CD1a, Langerin, CD80, CD40 and CD83 expressing cells [5, 8]: increased
expression levels of CD80, CD86, CD40 and HLA-DR [5, 8]: enhanced
Langerin expression in MUTZ3-DC cultures ([5]; cultures supplied with mitoxantrone): increased
increase in amount of migrated skin DC (human skin DC; 2.08 nM mitoxantrone with GM-CSF and IL-4, intradermal, 2 days): 50-60%
increase in amount of migrated skin DC (human skin DC; 5.6 nM mitoxantrone with GM-CSF and IL-4, intradermal, 2 days): 50-60%
amount of migrated skin DC (human skin DC; 16.7 nM mitoxantrone with GM-CSF and IL-4, intradermal, 2 days): only slightly increased
amount of skin emigrating DC (human skin DC; low dose of mitoxantrone in plain medium, intradermal): increased the amount of skin emigrating DC
capacity to migrate towards CCL19 and CCL21 (MUTZ3-DC): comparable to day 7 matured control DC
cell viability [6]: no effect
differentiation induction [6]: nor was any differentiation induction observed
CD34+ and CD14+ cell content ([7]; 72 hours, Flt3-L and SCF): loss of most CD34 positive cells and an increase in CD14 positive cells
percentage of CD1a+ Langerin+ cells ([7]; within 72 hours, LC-skewing cytokines, n=2): increase
IC50 (MUTZ3 progenitors [3]; Homo sapiens, 96 hour, Trypan blue exclusion, n=3): 1.5 ± 0.5 nM
IC60 concentration on MUTZ3 progenitors (MUTZ3 progenitors [3]; cytotoxic effect): 5.6 nM
IC70 concentration on MUTZ3 (MUTZ3 progenitors [3]; cytotoxic effect): 16.7 nM
expression levels of HLA-DR and CD54 (MUTZ3-LC cultures; 16.7 nM mitoxantrone, day 4): higher expression levels
expression of co-stimulatory molecules CD80 and CD86 (MUTZ3-LC cultures; 16.7 nM mitoxantrone, day 4): enhanced expression
percentage of CD14+ and CD34+ cells (MUTZ3-LC cultures; 16.7 nM mitoxantrone, day 4, 3 experiments, p=0.04 and p=0.02): significant decrease
amount of cells expressing maturation marker CD83 (MUTZ3-LC cultures; 16.7 nM mitoxantrone, day 4, p=0.03): significant raise
day on which fully differentiated cells were obtained (MUTZ3-LC cultures; mitoxantrone with cytokines, control cultures 8-10 days): 4 days
cells CD1a hi Langerin+ (MUTZ3-LC cultures; single dose 16.7 nM mitoxantrone at day 0, read day 4, control 25%): 76%
